Measured values as given in patent publication US9422248B2 (University of Iowa Research Foundation, priority 2012, dated 2016).
“And” between values parts separate entries of the source, which are not always exact repeats. Identical values can stand only once. “Also recorded” adds a separate entry of the source. Like-named read-outs stand apart in the source and are kept apart here.

Assays:
[1] = test system: seizures; assay: anticonvulsant properties (model not stated); conditions: in vivo
[2] = test system: 6 Hz (32 mA) model; conditions: cited from earlier work; for anticonvulsant activity in the 6 Hz model: mouse 6 Hz (32 mA), previously shown; for ED50: 6 Hz model, earlier work
[3] = test system: scMET model (pentylenetetrazole, Metrazol); conditions: mouse; previously demonstrated; cited from earlier work
[4] = test system: maximal electroshock (MES) model; conditions: mouse; previously demonstrated; cited from earlier work
[5] = test system: scMET model (pentylenetetrazole, Metrazol); assay: scMET test (subcutaneous Metrazol); assay type: in vivo, mouse; conditions: for responders at 30 mg/kg / responders at 100 mg/kg / responders at 300 mg/kg: Mus musculus, scMET, read-out: number of animals protected/number of animals tested; for responders at 30 mg/kg: 30 mg/kg ip; for responders at 100 mg/kg: 100 mg/kg ip; for responders at 300 mg/kg: 300 mg/kg ip
Excerpt: (§1) All compounds (FIG. 1) were screened in three whole mouse models: the maximal electroshock model (MES), the scMET test (pentylenetetrazole, Metrazol), and the 6 Hz psychomotor seizure model of partial epilepsy (32 mA). Adult male CF No 1 albino mice (26-30 g) were used for the 6 Hz test and 18-25 g mice were used in the MES and scMet tests. The animals are housed, fed, and handled in a manner consistent with the recommendations in the National Council Publication, “Guide for the Care and Use of Laboratory Animals”. The animal studies were performed by the NINDS Anticonvulsant Screening Program under IACUC number 09-12014. All compounds were administered ip in polyethylene glycol, 30%.
(§2) The MES model, which generates generalized tonic-clonic seizures, involved pretreating mice with experimental compound, and administering 60 Hz of alternating current (50 mA) for 2 s via corneal electrodes. Prior to current administration, the animal's corneas were treated topically with 1% tetracaine. Animals are considered protected if the hindlimb tonic extensor component is absent. The scMET test was done by pretreating mice with experimental compound and administering 85 mg/kg Metrazol into the loose folds of the skin in the midline of the neck. Eighty-five mg/kg Metrazol is the dose that causes seizures in 97% (CD97) of control animals.

[6] = test system: 6 Hz (32 mA) model; assay: 6 Hz (32 mA) psychomotor seizure model of partial epilepsy; assay type: in vivo, mouse; conditions: for Protective effects, number of animals protected/number of animals tested: 6 Hz (32 mA), 100 mg/kg ip
Excerpt: as §1
(§3) The 6 Hz test (also known as the minimal clonic seizure, or psychomotor test) involved delivering a corneal stimulus of 32 mA for 3 s. This current elicits psychomotor seizures in 97% of untreated animals. Seizures consist of a minimal clonic phase followed by stereotyped automatistic behaviors. Animals not showing such behaviors were considered protected. Toxicity was determined by the rotorod test. For this test, the animal is placed on a rotorod at 6 rpm following dosing. The animal is considered toxic if it falls off the rotorod three times in a 1 min period. The ED50, TD50 and confidence intervals were determined by probit analysis.

[7] = test system: rotorod test; assay: Toxicity by the rotorod test; assay type: in vivo
Excerpt: All compounds (FIG. 1) were screened in three whole mouse models: the maximal electroshock model (MES), the scMET test (pentylenetetrazole, Metrazol), and the 6 Hz psychomotor seizure model of partial epilepsy (32 mA). Adult male CF No 1 albino mice (26-30 g) were used for the 6 Hz test and 18-25 g mice were used in the MES and scMet tests. The animals are housed, fed, and handled in a manner consistent with the recommendations in the National Council Publication, “Guide for the Care and Use of Laboratory Animals”. […] All compounds were administered ip in polyethylene glycol, 30%.
as §3, with “This current elicits psychomotor seizures in 97% of untreated animals.” left out

[8] = test system: maximal electroshock (MES) model; assay: maximal electroshock (MES) model; assay type: in vivo, mouse; conditions: for responders at 30 mg/kg / responders at 100 mg/kg / responders at 300 mg/kg: Mus musculus, MES; for responders at 30 mg/kg: 30 mg/kg ip; for responders at 30 mg/kg / responders at 300 mg/kg: read-out: number of animals protected/number of animals tested; for responders at 100 mg/kg: 100 mg/kg ip, read-out: number of animals protected/number of animals tested (converted); for responders at 300 mg/kg: 300 mg/kg ip
Excerpt: as §1, §2

[9] = analgesic properties (test not described)

| SMILES | anticonvulsant activity in the 6 Hz model [2] | responders at 30 mg/kg ([5]; 0.5 h) [%] | responders at 30 mg/kg ([5]; 4 h) [%] | responders at 100 mg/kg ([5]; 0.5 h) [%] | responders at 100 mg/kg ([5]; 4 h) [%] | responders at 300 mg/kg ([5]; 0.5 h) [%] | responders at 300 mg/kg ([5]; 4 h) [%] | Toxicity, animals/number of animals tested ([7]; dose 100 mg/kg ip, 0.25 h) | Toxicity, animals/number of animals tested ([7]; dose 100 mg/kg ip, 0.5 h) | Toxicity, animals/number of animals tested ([7]; dose 100 mg/kg ip, 1 h) | Toxicity, animals/number of animals tested ([7]; dose 100 mg/kg ip, 2 h) | Toxicity, animals/number of animals tested ([7]; dose 100 mg/kg ip, 4 h) | responders at 30 mg/kg ([8]; 0.5 h) [%] | responders at 100 mg/kg ([8]; 0.5 h) [%] | responders at 100 mg/kg ([8]; 4 h) [%] | responders at 300 mg/kg ([8]; 0.5 h) [%] | responders at 300 mg/kg ([8]; 4 h) [%] | other results |
| --- | --- | --- | --- | --- | --- | --- | --- | --- | --- | --- | --- | --- | --- | --- | --- | --- | --- | --- |
| CC(C)c1nc(C(O)C(F)(F)F)ccc1O (stereo not shown) [Compound 20, 2-isopropyl-6-(2,2,2-trifluoro-1-hydroxyethyl)pyridin-3-ol] | – | – | – | – | – | – | – | – | – | – | – | – | – | – | – | – | – | anticonvulsant properties [1]: anticonvulsant properties |
| Cc1cc(C(O)C(F)(F)F)cc(C)c1O (stereo not shown) [DMPF] | lack of activity | – | – | – | – | – | – | – | – | – | – | – | – | – | – | – | – | – |
| CC(C)c1cc(C(O)C(F)(F)F)cc(C(C)C)c1O (stereo not shown) [MB003] | good anticonvulsant activity; also recorded: protective | – | – | – | – | – | – | – | – | – | – | – | – | – | – | – | – | protective effects in the scMET model [3]: little to no protective effects; ED50 [2]: 38.6 mg/kg; protective effects in the MES model [4]: little to no protective effects |
| CCC(C)c1cc(C(O)C(F)(F)F)cc(C(C)CC)c1O (stereo not shown) [MB050] | good anticonvulsant activity | – | – | – | – | – | – | – | – | – | – | – | – | – | – | – | – | ED50 [2]: 73 mg/kg |
| Cc1cc(C(O)C(F)(F)F)ccc1O (stereo not shown) [RM170, 2-Methyl-4-(2,2,2-trifluoro-1-hydroxy-ethyl)-phenol] | – | 0 | 0 | 0 | 0 | 0 | 0 | 0/3 | 0/8 | 0/3 | 0/3 | 0/4 | 0 | 0 | 0 | 100 | 100 | Protective effects, number of animals protected/number of animals tested ([6]; 0.25 h): 0/4; Protective effects, number of animals protected/number of animals tested ([6]; 0.5 h): 0/4; Protective effects, number of animals protected/number of animals tested ([6]; 1 h): 2/4; Protective effects, number of animals protected/number of animals tested ([6]; 2 h): 1/4; Protective effects, number of animals protected/number of animals tested ([6]; 4 h): 1/4; animals in which seizures were inhibited ([6]; 6 Hz, 100 mg/kg, any time point from 0.25 to 4 h): no more than 2 of 4; Toxicity, animals/number of animals tested ([7]; dose 100 mg/kg ip, 6 h): 0/3; Toxicity, animals/number of animals tested ([7]; dose 30 ip, 0.5 h): 0/4; Toxicity, animals/number of animals tested ([7]; dose 30 ip, 4 h): 0/2; Toxicity, animals/number of animals tested ([7]; dose 300 ip, 0.5 h): 0/4; Toxicity, animals/number of animals tested ([7]; dose 300 ip, 4 h): 0/2; evidence of toxicity ([7]; doses up to 300 mg/kg): Neither RM170 nor RM166 showed any evidence of toxicity; MES protection ([8]; 300 mg/kg dose): some protection; MES protection, time points after dosing ([8]; 300 mg/kg dose): protection at both 0.5 and 4 h; responders at 100 mg/kg ([8]; 0.25 h): 0%; responders at 100 mg/kg ([8]; 1 h): 0%; responders at 100 mg/kg ([8]; 2 h): 0%; responders at 100 mg/kg ([8]; 6 h): 0% |
| CCCc1cc(C(O)C(F)(F)F)cc(Br)c1O (stereo not shown) [RM1204, 2-Bromo-6-n-propyl-4-(2,2,2-trifluoro-1-hydroxy-ethyl)-phenol] | – | 0 | 0 | 0 | 0 | 0 | 0 | 1/4 | 0/4 | 1/4 | 0/4 | 0/4 | 0 | 0 | 0 | 0 | 0 | Protective effects, number of animals protected/number of animals tested ([6]; 0.25 h, 100 mg/kg): 4/4 and complete protection; Protective effects, number of animals protected/number of animals tested ([6]; 0.5 h, 100 mg/kg): 4/4 and complete protection; Protective effects, number of animals protected/number of animals tested ([6]; 1 h, 100 mg/kg): partial protection and 2/4; Protective effects, number of animals protected/number of animals tested ([6]; 2 h): 0/4; Protective effects, number of animals protected/number of animals tested ([6]; 4 h): 0/4; toxicity ([7]; mouse, in vivo): only low toxicity; responders at 30 mg/kg ([8]; 4 h): 0%; MES protection ([8]; any dose (30-300 mg/kg ip)): no MES protection |
| CCCc1cc(C(O)C(F)(F)F)ccc1O (stereo not shown) [RM1208, 2-n-Propyl-4-(2,2,2-trifluoro-1-hydroxy-ethyl)-phenol] | – | 0 | 0 | 0 | 0 | 100 | 0 | 0/2 | 0/8 | 0/3 | 0/3 | 0/4 | 0 | 0 | 0 | 100 | 100 | scMET protection, time points after dosing ([5]; 300 mg/kg dose): at 0.5 h only; antiseizure activity in the 6 Hz model ([6]; mouse, in vivo): not an active compound; Toxicity, animals/number of animals tested ([7]; dose 100 mg/kg ip, 6 h): 0/3; Toxicity, animals/number of animals tested ([7]; dose 30 ip, 0.5 h): 0/4; Toxicity, animals/number of animals tested ([7]; dose 30 ip, 4 h): 0/2; Toxicity, animals/number of animals tested ([7]; dose 300 ip, 0.5 h): 3/4; Toxicity, animals/number of animals tested ([7]; dose 300 ip, 4 h): 0/2; MES protection ([8]; 300 mg/kg dose): some protection; MES protection, time points after dosing ([8]; 300 mg/kg dose): protection at both 0.5 and 4 h; responders at 30 mg/kg ([8]; 0.25 h): 0%; responders at 30 mg/kg ([8]; 1 h): 0%; responders at 30 mg/kg ([8]; 2 h): 0%; responders at 30 mg/kg ([8]; 4 h): 0%; responders at 30 mg/kg ([8]; 6 h): 0% |
| CC(C)c1cc(C(O)C(F)(F)F)cc(Br)c1O (stereo not shown) [compound 10] | – | – | – | – | – | – | – | – | – | – | – | – | – | – | – | – | – | analgesic properties [9]: analgesic properties |
